Measured values published in patent US20200131238A1, “METHOD FOR PROMOTING ADIPOCYTE DIFFERENTIATION AND OBESITY-RELATED DISEASE TREATMENT” (AMERICAN UNIVERSITY, priority 2018, published 2020).

B1: NRG1 EGF-β peptide: recombinant NRG1 EGF-β domain peptide, 65 amino acids, BioLegend Cat # 711104 (protein, listed as Homo sapiens)
chain: SHLVKCAEKEKTFCVNGGECFMVKDLSNPSRYLCKCPNEFTGDRCQNYVMASFYKHLGIEFMEAE

Key:
NRG1 = NRG1 isoform expression in stem cells after DAC treatment (RT-qPCR); assay type: cell-based, human
Source text: A. Microarray data showing that NRG1 is preferentially expressed in clonal cell line AF2, both stem cells and adipocytes. UCP1 is a brown adipose tissue (BAT) marker and UCP2 is a white adipose tissue (WAT) marker. Adiponectin (ADIPOQ) shown as a differentiation control. P-values calculated relative to NRG4 using 1-way ANOVA. Analysis of gene expression in mouse adipose precursor cell lines isolated from inguinal (B) or perigonadal (C) depots of a male mouse. […] NRG, Neuregulin; UCP, uncoupling protein; AdipoQ, adiponectin. Isoform-specific epigenetic induction of NRG1 expression in primary human cells, clonal (D) and raw processed lipoaspirate (E). Expression of NRG1 is induced with demethylating agent decitabine (DAC). Types I-III represent distinct transcriptional start sites within the NRG1 locus and produce different mRNA isoforms (see FIG. 7D for map). The Type III isoform is specifically DAC responsive. P-values derived from Tukey's HSD post-hoc test after ANOVA and are relative to corresponding matched DMSO control. Note Type II isoform expression was not detected in the stem cells.
First, by evaluating gene expression in stem cells immediately after DAC treatments (rather than differentiated cells), we minimized secondary gene expression changes caused by the differentiation process itself. […]

AF2 cells = test: adipose differentiation assay with AF2 clonal cells; assay type: cell-based, human
Source text: Because patient-derived cells, such as ASCs, are highly heterogeneous, it is vital to ensure that the differences in cell behavior are truly fate decisions and not a measure of non-stem cell contamination (perhaps immune cells, fibroblasts, or other cells). We therefore have performed our experiments with clonally-derived cells expanded in the inventor's laboratory. Many of our experiments use a single clonal line isolated from ASC080414A (Zen-Bio, Inc.), called the AF2 line. Clonal isolation has the advantage of minimizing both genetic and epigenetic variance, which enabled us to identify a highly significant signal in our data (FIG. 6E).
First, by evaluating gene expression in stem cells immediately after DAC treatments (rather than differentiated cells), we minimized secondary gene expression changes caused by the differentiation process itself. Second, hypothesizing that the expression of driver genes will more strongly correlate with differentiation efficiency than passenger genes, we obtained the Pearson's correlation between candidate gene expression in stem cells and the relative formation of adipocytes after 14-18 days of adipogenic induction. Third, we used a clonal cell line (AF2) in order to minimize epigenetic variability between cells. […]

Row | Molecule | up-regulation of one NRG1 isoform (Type III) relative to DMSO control (NRG1; 1 μM DAC) | increase of NRG1 Type I isoform (NRG1; DAC vs DMSO) [fold] | differentiation induction by recombinant NRG1 peptide added to culture media (AF2 cells; AF2 clonal cells) | activating dose of NRG1 peptide (AF2 cells; stem cells, FIGS. 7A,B,C) [ng/mL]
1 | Nc1ncn([C@H]2C[C@H](O)[C@@H](CO)O2)c(=O)n1 [DAC, 5-aza-2′-deoxycitidine] | approximately 10 fold | ~2 | – | –
2 | B1 | – | – | able to recapitulate the differentiation induction observed with DAC | 200
